As usually defined, the IC50 is the concentration that inhibits the measured activity by half. As usually defined, the pKa is the pH at which an ionisable group is half protonated. A lower pKa goes with a group that gives up its proton readily. The term melting point denotes the temperature, or range, at which the solid turns liquid.

Values after ≈ are worked out from the molar mass of the structure shown. Values joined by “and” are separate entries in the source; they are usually repeats but may differ in a detail not shown here. Equal values may be shown once. “Also recorded” adds a separate entry of the source. Marks after values point to notes of the source that are not given here.

Data set [1] has as its system MRSE 35984. Kind of data set: MIC susceptibility assay (broth microdilution). As to conditions: Staphylococcus epidermidis, MRSE, 16 h, read-out: MIC MRSE 35984. For orientation: Broth dilution looks for growth in wells or tubes with falling amounts of substance.
Method: (§1) (MIC values were further supported by spectrophotometric readings at OD600). The concentration range tested for each HP compound during this study was 0.05 to 50 μM. DMSO served as our vehicle and negative control in each microdilution MIC assay. DMSO was serially diluted with a top concentration of 0.5% v/v.
Data set [2] relates to MRSA-44. Kind of data set: MIC susceptibility assay (broth microdilution). As to conditions: Staphylococcus aureus, 16 h, read-out: MIC MRSA-44.
Method: as §1
Data set [3] deals with S. aureus. Kind of data set: Antibacterial MIC, initial phenazine collection. The class given is cell-based. The conditions noted are these: Staphylococcus aureus; initial discovery; read-out: MIC against S. aureus.
The subject of data set [4] is S. epidermidis. Kind of data set: Antibacterial MIC, initial phenazine collection. The data set is classed as cell-based. As to conditions: Staphylococcus epidermidis; initial discovery; read-out: MIC against S. epidermidis.
The test system of data set [5] is MRSA-1707. Kind of data set: MIC susceptibility assay (broth microdilution). The conditions noted are these: 16 h; for MIC: Staphylococcus aureus, MRSA, read-out: MIC MRSA-1707, planktonic growth inhibition, 16 h, 37° C.
Method: as §1
For data set [6], the system named is E. faecalis OG1RF. Kind of data set: MIC susceptibility assay (broth microdilution). The conditions noted are these: Enterococcus faecalis, 16 h, read-out: MIC E. faecalis OG1RF.
Method: as §1
In data set [7] the test system is HeLa cells. Kind of data set: LDH release assay for HeLa cytotoxicity. The conditions noted are these: read-out: HeLa Cell Cytotox. (IC50), 24-h, tested at 25, 50 and 100 μM.
In data set [8] the test system is J774 MΦ. Kind of data set: Alamar Blue cytotoxicity assay, J774 macrophages. As to conditions: read-out: J774 MΦ Cytotox. (IC50), 24-h. On the technique in general: Alamar Blue is a resazurin reagent that responds to reducing activity.
In data set [9] the test system is HepG2 cells. Kind of data set: Alamar Blue cytotoxicity assay, HepG2. The conditions noted are these: read-out: Hep G2 Cytotox. (IC50), 24-h.
Data set [10] deals with Mtb CDC1551. Kind of data set: microbe, parasite or virus in culture. The conditions noted are these: Mycobacterium tuberculosis, CDC1551, 120 h. The class given is cell-based, Mycobacterium tuberculosis.
Data set [11] deals with human red blood cells. Kind of data set: Hemolysis assay with red blood cells. As to the method:
Hemolysis assays are used to determine the membrane-lysis activity of a compound, which is of particular interest to this work as membrane-lysing agents (e.g., QACs) can eradicate biofilms.
Cytotoxicity Assay against HEK-293 Cells.^48 The viability of HEK-293 cells was assessed by the MTT assay. The cells were cultured in DMEM medium containing 10% fetal bovine serum and 100 U/mL penicillin and streptomycin. The cells (10^4 cells/well) were seeded onto a 96-well plate and maintained at 37° C. in a humidified incubator under 5% CO2 overnight. […] After incubation at 37° C. for 72 hours, 10 μL of MTT (5 mg/mL) in PBS was added to each well and incubated for 4 hours, followed by the aspiration of the medium. Dimethyl sulfoxide (DMSO, 100 μL) was then added to each well to dissolve the MTT in the wells, and the plate was agitated for 1 hour. The optical density (OD) was measured at 570 nm using a UV/vis microplate spectrophotometer (BioTek). The percent inhibition was calculated as follows: Inhibition (%)=(1−test OD570/non-treated OD570)×100%. The data were analyzed by Origin. Hemolysis Assay with Red Blood Cells. […] The washing was repeated three times with the buffer. In 96-well plate, test compounds were added to the buffer from DMSO stocks. […] The plate was then incubated for 1 hour at 37° C. After incubation, the plate was centrifuged for 5 minutes at 3,500 rpm before 80 μL of the supernatant was transferred to another 96-well plate to obtain an optical density (OD) read at 405 nm. DMSO served as the negative control (0% hemolysis) while Triton X served as the positive control (100% hemolysis) in these experiments. The percent hemolysis was calculated as (OD405 of the compound treated RBCs−OD405 DMSO control)/(OD405 Triton X treated RBCs−OD405 buffer) from three independent experiments.

In data set [12] the test system is MRSA-1707 biofilms. Kind of data set: Calgary Biofilm Device (CBD) assay. As to conditions: Staphylococcus aureus, read-out: MRSA-1707 MBC.
Data set [13] deals with Mtb H37Ra. Kind of data set: MIC assay for Mtb H37Ra. The conditions noted are these: seven days, 37° C.
Data set [14] concerns E. faecalis OG1RF biofilms. Kind of data set: Calgary Biofilm Device (CBD) assay. As to conditions: Enterococcus faecalis, OG1RFBIOFILMS, read-out: E.faecalis OG1RF MBC.
Data set [15] in a line: pKa determination by UV-vis spectroscopy. The data set is classed as physicochemical. How it is done:
(c) pKa determination of select HP analogues.^36 Dissociation constants (pKa) for select HP analogues were determined using UV-vis spectroscopy and the Henderson-Hasselbalch equation. Buffers were prepared using potassium phosphate monobasic (KH2PO4) and sodium phosphate dibasic ([…]) in a 1:1 solution of water:methanol to achieve a pH range of 4.07 to 9.66 (ammonium hydroxide was added to prepare buffer pH over 9.80). Compounds were added from 10 mM stock solutions in dimethyl sulfoxide (25 μL) to 1975 μL of each buffer to each evaluate analogue to yield a final compound concentration of 125 μM. Full spectral scans were performed from 200 to 800 nm in 2 nm increments to determine λmax values for the protonated phenol (HA) and the deprotonated phenolate species (A^−). The change in absorption at each determined λmax in relation to pH was monitored in each buffer and plotted as absorbance versus pH for each species. The pKa was first estimated by determining the pH of the point of intersection of the two linear curves. The visual estimation was confirmed by plotting pH versus log [A^−/HA]. The resulting plot yielded a linear regression line with a Y-intercept corresponding to a calculated pKa value.

Data set [16] relates to MRSE 35984 biofilms. Kind of data set: Calgary Biofilm Device (CBD) assay. As to conditions: Staphylococcus epidermidis, MRSE, read-out: MRSE 35984 MBC.
Data set [17] relates to isdB, sfaA, sbnC, MW0695 transcripts in MRSA-1707 biofilms. Kind of data set: RT-qPCR of iron uptake genes in MRSA biofilms. As to conditions: 4 h treatment at 1 μM or 1/10×MBEC. On the technique in general: Quantitative PCR measures a nucleic acid by following its amplification.
For data set [18] the test system is unchanged. The conditions noted are these: at 5 μM, reported earlier; cited from earlier work.
For data set [19], the system named is S. aureus 147. Kind of data set: MIC assay against clinical isolate. As to conditions: Staphylococcus aureus, 147; clinical isolate; read-out: MIC S. aureus 147. The class given is cell-based.
Data set [20] concerns S. aureus 129. Kind of data set: MIC assay against clinical isolate. The data set is classed as cell-based. The conditions noted are these: Staphylococcus aureus.
In data set [21] the test system is S. aureus 138. Kind of data set: MIC assay against clinical isolate. The data set is classed as cell-based. The conditions noted are these: Staphylococcus aureus.
In data set [22] the test system is S. aureus strain ATCC 29213. Kind of data set: MIC against methicillin-susceptible strain. The data set is classed as cell-based. The conditions noted are these: Staphylococcus aureus, ATCC29213; strain susceptible to methicillin.
The subject of data set [23] is MRSA 1. Kind of data set: MIC assay against clinical isolate. As to conditions: Staphylococcus aureus. The data set is classed as cell-based, S. aureus.
Data set [24] has as its system S. aureus 156. Kind of data set: MIC assay against clinical isolate. The class given is cell-based. The conditions noted are these: Staphylococcus aureus, 156, read-out: MIC S. aureus 156.
The test system of data set [25] is MRSA 2. Kind of data set: MIC assay against clinical isolate. The data set is classed as cell-based, S. aureus. The conditions noted are these: Staphylococcus aureus.
For data set [26], the system named is VRE 700221 biofilms. Kind of data set: Calgary Biofilm Device (CBD) assay. The conditions noted are these: Enterococcus, read-out: VRE 700221 MBC.

As for `Oc1c(Br)ccc2nc3ccccc3nc12` [Compound 1, 2-bromo-1-hydroxyphenazine, reference compound], the MIC amounted to 3.13 µM (≈ 0.861 µg/mL) in data set [1]; 3.13 µM (≈ 0.861 µg/mL) in data set [2]; 6.25 µM (≈ 1.72 µg/mL) in data set [3]; 6.25 µM (≈ 1.72 µg/mL) in [4]; 3.13 µM (≈ 0.861 µg/mL) in [5]; 18.8 µM (≈ 5.17 µg/mL) in data set [6].
For the compound `Oc1cc(Cl)cc2nc3c(Cl)cc(Cl)cc3nc12` [Compound 24, 3,6,8-Trichlorophenazin-1-ol], the MIC came to 0.3 µM (≈ 0.0899 µg/mL) in data set [2] and 2.31 µM (≈ 0.692 µg/mL) in [10]. Further, the IC50 in [7] was more than 100 µM; in data set [8] it was more than 200 µM; in data set [9] it was more than 200 µM. Also, the “% Hemolysis at 200 μM” value in data set [11] (human RBCs, 1 hour, 37° C.) is listed as not above 1%. Besides, the MBC in data set [12] is 18.8 µM (≈ 5.63 µg/mL). In addition, the “MIC Mtb H37Ra” value in data set [13] came to 3.13 µM (≈ 0.938 µg/mL).
Consider `Oc1c(Br)c(Cl)c(Br)c2nc3ccccc3nc12` [Compound 28, 2,4-Dibromo-3-chlorophenazin-1-ol], for which the results for the half-maximal inhibitory concentration (IC50) in data set [7], in data set [8] and in [9] were more than 100 µM, more than 200 µM and more than 200 µM, respectively. Also, the MBC in data set [14] was found to be 75 µM (≈ 29.1 µg/mL); in [16], 12.5 µM (≈ 4.86 µg/mL); in data set [12] it was 50 µM (≈ 19.4 µg/mL). Also, the pKa in [15] was found to be 5.93. Also, the MIC was 4.37 µM (≈ 1.7 µg/mL) in data set [10], 0.15 µM (≈ 0.0583 µg/mL) in data set [5] and 3.13 µM (≈ 1.22 µg/mL) in [6]. The “% Hemolysis at 200 μM” value in [11] (human RBCs, 1 hour, 37° C.) is reported as not above 1%. In data set [5] (planktonic growth inhibition, 37° C.), the “MIC MRSA-1707” value is 0.15^a μM and 0.15 μM. In [13], the “MIC Mtb H37Ra” value was determined as 6.25 µM (≈ 2.43 µg/mL). Further, the “iron starvation / up-regulation of iron uptake genes in MRSA-1707 biofilms” value in [17] is recorded as “induction of iron starvation; also recorded: up-regulating iron uptake genes; also recorded: induced rapid iron starvation; also recorded: rapidly induce iron starvation”.
With `Oc1c(Br)c(Br)c(Br)c2nc3ccccc3nc12` [Compound 150], the melting point was in the range of 222 to 224 °C. Further, the MIC in data set [1] amounted to 0.3 µM (≈ 0.13 µg/mL). In addition, the MIC in data set [5] was 0.1 µM (≈ 0.0433 µg/mL).
`O=C(O)CN(CCN(CC(=O)O)CC(=O)O)CC(=O)O` [EDTA, ethylenediaminetetraacetic acid, reference compound]: the MIC in data set [2] was found to be 125 µM (≈ 36.5 µg/mL); in data set [6] it was 500 µM (≈ 146 µg/mL). Also, the MBC in data set [14] was more than 2000 µM; in [16], 1000 µM (≈ 292 µg/mL); in data set [12], more than 2000 µM. In addition, the “up-regulation of panel of iron uptake genes” value in data set [18] was “did not upregulate this panel of iron uptake genes”. In addition, the “% Hemolysis at 200 μM” value in data set [11] (human, 1 h, pH 7.2) is recorded as not above 1%.
`COc1cccc(OC)c1C(=O)N[C@@H]1C(=O)N2[C@@H]1SC(C)(C)[C@@H]2C(=O)O` [Methicillin, reference compound]: the MIC in data set [19] stood at 6.25 µM (≈ 2.38 µg/mL); in data set [20], 37.5 µM (≈ 14.3 µg/mL); in data set [21] it was 37.5 µM (≈ 14.3 µg/mL); in [22], 0.78 µM (≈ 0.297 µg/mL); in data set [23] it was 37.5 µM (≈ 14.3 µg/mL); in [24] it was 37.5 µM (≈ 14.3 µg/mL). This compound gave an MIC in data set [25] of more than 100 µM.
For `c1ccc(CN(CCN(Cc2ccccn2)Cc2ccccn2)Cc2ccccn2)nc1` [TPEN, N,N,N′,N′-tetrakis(2-pyridinylmethyl)-1,2-ethanediamine, reference compound], the MIC in [2], in data set [5] and in [6] was 46.9 µM (≈ 19.9 µg/mL) each time. For the same compound, the MBC in data set [14] worked out at 500 µM (≈ 212 µg/mL); in data set [26], 188 µM (≈ 79.8 µg/mL); in data set [12], 375 µM (≈ 159 µg/mL). Further, the “up-regulation of panel of iron uptake genes” value in [18] was “did not upregulate this panel of iron uptake genes”. The “% Hemolysis at 200 μM” value in data set [11] (human RBCs, 1 hour, 37° C.) was not above 1%.

The values above are taken from patent publication US12060334B2, “3-substituted phenazine derivatives as antimicrobial agents” (University of Florida Research Foundation, Incorporated, priority 2021, dated 2024).
